Laboratory results taken from patent US20110196006A1, “IMAZALIL COMPOSITIONS COMPRISING ALKOXYLATED AMINES” (priority 2004, published 2011).

Experiments:
Microdochium nivale [1] = assay: Experiment 2: poison plate assay (growth inhibition, MIC); assay type: cell-based; details: as Experiment 1, imazalil 10-2.37 ppm, alkoxylated amine 40-9.49 ppm
Description: Activity against growth of Microdochium nivale was determined with the poison plate assay. A calculated amount of a stock solution (containing either imazalil or an alkoxylated amine of formula (I) dissolved in dimethyl sulfoxide was pipetted into multiwell plates. Culture medium (potato dextrose agar) was added aseptically and uniform distribution was obtained by shaking. The plates were inoculated with the test fungus Microdochium nivale (suspension of 6.10^5 spores/ml). The multi-well plates were kept in the dark at 21° C. and a relative humidity of 75%. The lowest concentration of each test compound or mixture of test compounds sufficient to inhibit visible growth was taken as the minimum inhibitory concentration (MIC). The MIC were taken as end points of activity. End points for the combinations of imazalil with an alkoxylated amine of formula (I) were then compared with the end points for these test compound when employed individually. A similar poison plate assay was run as described in Experiment 1, but the final concentrations of imazalil now ranged from 10, 7.50, 5.63, 4.22, 3.16 to 2.37 ppm. The final concentrations of alkoxylated amine of formula (I) now ranged from 40, 30, 22.50, 16.88, 12.66 to 9.49 ppm.

Microdochium nivale [2] = assay: Experiment 1: poison plate assay (growth inhibition, MIC); assay type: cell-based; details: potato dextrose agar, 21° C., dark, 75% relative humidity, imazalil 6.66-1.58 ppm, alkoxylated amine 26.66-6.33 ppm, combinations imazalil:amine 1 to 4
Description: Activity against growth of Microdochium nivale was determined with the poison plate assay. A calculated amount of a stock solution (containing either imazalil or an alkoxylated amine of formula (I) dissolved in dimethyl sulfoxide was pipetted into multiwell plates. Culture medium (potato dextrose agar) was added aseptically and uniform distribution was obtained by shaking. The plates were inoculated with the test fungus Microdochium nivale (suspension of 6.10^5 spores/ml). The multi-well plates were kept in the dark at 21° C. and a relative humidity of 75%. The stock solution comprising imazalil at a concentration of 2000 ppm was pipetted in the multiwell plates in order to reach a final test concentration in six decreasing steps ranging from 6.66, 5.00, 3.75, 2.81, 2.11 and 1.58 ppm. The stock solution comprising an alkoxylated amine of formula (I) at a concentration of 8000 ppm was pipetted in the multiwell plates in order to reach a final test concentration in six decreasing steps ranging from 26.66, 20.00, 15.00, 11.25, 8.44, and 6.33 ppm wherein the ratio of imazalil to alkoxylated amine of formula (I) is 1 to 4 in each of the wells containing both imazalil and alkoxylated amine (I). The lowest concentration of each test compound or mixture of test compounds sufficient to inhibit visible growth was taken as the minimum inhibitory concentration (MIC). The MIC were taken as end points of activity. End points for the combinations of imazalil with an alkoxylated amine of formula (I) were then compared with the end points for these test compound when employed individually.

[3] = Microdochium nivale, read-out: MIC-values (lowest concentration sufficient to inhibit visible growth)

Compound: N,N′,N′-tris(2-hydroxyethyl)-N-cocoalkyl-1,3-diaminopropane [ethoduomeen C13]
- MIC-values (lowest concentration sufficient to inhibit visible growth) (Microdochium nivale [1]): >40 ppm

Compound: bis-(2-hydroxyethyl)cocoalkylamine [ethomeen C12]
- MIC-values (lowest concentration sufficient to inhibit visible growth) (Microdochium nivale [2]): >26.7 ppm

Compound: C=CCOC(Cn1ccnc1)c1ccc(Cl)cc1Cl (centres unmarked) [imazalil]
- MIC (Microdochium nivale [1]; [3]): 3.16 µg/mL
- MIC (Microdochium nivale [2]; [3]): 2.81 µg/mL

Compound: N,N′,N′-tris-(2-hydroxyethyl)-N-tallowalkyl-1,3-diaminopropane [ethoduomeen T13]
- MIC-values (lowest concentration sufficient to inhibit visible growth) (Microdochium nivale [2]): >26.7 ppm
